Each compound was assayed against T1, human AhR (Homo sapiens, UniProt P35869) (assay: INDIGO AhR Reporter Assay (luciferase reporter cells, antagonist mode)). Conditions: antagonist mode with 50 nM of VAF347 (AhR agonist); 22-24 hours incubation; luciferase RLU.
T1 construct: INDIGO's Aryl Hydrocarbon Receptor (AhR) Reporter Cells include the luciferase reporter gene functionally linked to an AhR-responsive promoter
T1 sequence (P35869 11-848): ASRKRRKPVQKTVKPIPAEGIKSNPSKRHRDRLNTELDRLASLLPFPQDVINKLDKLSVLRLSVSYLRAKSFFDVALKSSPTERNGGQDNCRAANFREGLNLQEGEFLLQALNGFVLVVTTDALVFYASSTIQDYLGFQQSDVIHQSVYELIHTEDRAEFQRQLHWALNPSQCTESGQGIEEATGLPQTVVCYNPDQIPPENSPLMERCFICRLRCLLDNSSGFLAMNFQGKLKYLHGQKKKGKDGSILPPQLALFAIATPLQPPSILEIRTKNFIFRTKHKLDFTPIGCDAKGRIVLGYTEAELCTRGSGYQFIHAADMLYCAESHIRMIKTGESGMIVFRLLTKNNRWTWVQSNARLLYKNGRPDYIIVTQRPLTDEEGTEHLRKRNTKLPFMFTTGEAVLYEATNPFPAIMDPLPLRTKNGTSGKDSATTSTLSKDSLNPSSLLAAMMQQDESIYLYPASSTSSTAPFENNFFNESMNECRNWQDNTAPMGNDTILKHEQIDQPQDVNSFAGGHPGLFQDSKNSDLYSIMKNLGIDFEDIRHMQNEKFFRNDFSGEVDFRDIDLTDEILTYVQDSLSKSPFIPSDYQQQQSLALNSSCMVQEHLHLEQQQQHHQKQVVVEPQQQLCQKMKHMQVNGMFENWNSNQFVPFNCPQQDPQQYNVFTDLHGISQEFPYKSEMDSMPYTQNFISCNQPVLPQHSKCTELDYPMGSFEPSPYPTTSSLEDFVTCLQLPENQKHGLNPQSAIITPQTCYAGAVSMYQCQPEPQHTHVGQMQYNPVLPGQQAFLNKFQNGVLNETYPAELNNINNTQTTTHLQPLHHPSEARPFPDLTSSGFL
Format: cell-based
Description: INDIGO's Aryl Hydrocarbon Receptor (AhR) Reporter Cells include the luciferase reporter gene functionally linked to an AhR-responsive promoter. Thus, quantifying changes in luciferase expression in the treated reporter cells provides a sensitive surrogate measure of the changes in AhR activity. The principle application of this reporter assay is in the screening of test samples to quantify any functional activity, either agonist or antagonist, that they may exert against human AhR. Reporter Cells incorporate the cDNA encoding beetle luciferase, a 62 kD protein originating from the North American firefly (Photinus pyralis). Luciferase catalyzes the mono-oxidation of D-luciferin in a Mg^2+-dependent reaction that consumes 02 and ATP as co-substrates, and yields as products oxyluciferin, AMP, PPi, CO2, and photon emission. Luminescence intensity of the reaction is quantified using a luminometer, and is reported in terms of Relative Light Units (RLU's). In brief, 200 μl of Reporter Cells was dispensed into wells of the assay plate and pre-incubated for 4-6 hours. Following the pre-incubation period, culture media were discarded and 200 µl/well of the prepared 1×-concentration treatment media were added. Following 22-24 hours of incubation, treatment media were discarded and Luciferase Detection Reagent was added. The intensity of light emission (in units of “Relative Light Units” (RLU)) from each assay well was quantified using a plate-reading luminometer. The assay was run as a competitive binding assay in the antagonist mode with 50 nM of VAF347, a known AhR agonist.
In Table 4, IC50 values are reported as A, B, C, or D. A represents an IC50 value of less than 100 nM. B represents an IC50 value of equal or greater than 100 nM and less than 500 nM. C represents an IC50 value of equal or greater than 500 nM and less than 1 μM. D represents an IC50 value of equal or greater than 1 μM.

`Cn1nc(C(F)(F)F)cc1NC(=O)c1ccc2cc(-c3ccccc3)cnc2c1` [Compound 40, N-[1-Methyl-3-(trifluoromethyl)-1H-pyrazol-5-yl]-3-phenylquinoline-7-carboxamide] and `Cn1nc(C(F)(F)F)cc1NC(=O)c1ccc2cc(-c3ccccc3F)cnc2c1` [Compound 54, 3-(2-Fluorophenyl)-N-[1-methyl-3-(trifluoromethyl)-1H-pyrazol-5-yl]quinoline-7-carboxamide] cannot be ordered by IC50: < 100 nM for the first, < 100 nM for the second.

Compared with `Cc1ccc(F)cc1-c1cc(NC(=O)c2cc3ncccc3cc2Cl)n(C)n1` [Compound 50, 6-Chloro-N-[3-(5-fluoro-2-methylphenyl)-1-methyl-1H-pyrazol-5-yl]quinoline-7-carboxamide], `Cc1cc(F)ccc1-c1cc(NC(=O)c2cc3ncccc3cc2Cl)n(C)n1` [Compound 57, 6-Chloro-N-(3-(4-fluoro-2-methylphenyl)-1-methyl-1H-pyrazol-5-yl) quinoline-7-carboxamide] is higher in IC50: < 100 nM for the first, 100 to 500 nM for the second. The first is the more potent here.

`CCN(CC)S(=O)(=O)c1cc(NC(=O)c2cc3cc(-c4ccc(F)cc4)cnc3s2)ccc1Cl` [Compound 141, N-[4-chloro-3-(N,N-diethylsulfamoyl)phenyl]-5-(4-fluorophenyl)-thieno[2,3-b]pyridine-2-carboxamide] and `CN(C)S(=O)(=O)c1cc(NC(=O)c2cc3cc(-c4ccc(F)cc4)cnc3s2)ccc1Cl` [Compound 148, N-[4-chloro-3-(N,N-dimethylsulfamoyl)phenyl]-5-(4-fluorophenyl)-thieno[2,3-b]pyridine-2-carboxamide] fall in the same range of IC50: 100 to 500 nM for the first, 100 to 500 nM for the second.

Compared with `Cc1cc(Cl)ccc1-c1cc(NC(=O)c2cc3ncccc3cc2Cl)n(C)n1` [Compound 58, 6-Chloro-N-(3-(4-chloro-2-methylphenyl)-1-methyl-1H-pyrazol-5-yl)quinoline-7-carboxamide], `Cc1ccccc1-c1cc(NC(=O)c2cc3ncccc3cc2Cl)n(C)n1` [Compound 31, 6-Chloro-N-[1-methyl-3-(2-methylphenyl)-1H-pyrazol-5-yl]quinoline-7-carboxamide] is lower in IC50: 100 to 500 nM for the first, < 100 nM for the second. The second is the more potent here.

First: CCN(CC)S(=O)(=O)c1cc(NC(=O)c2cc3ncccc3cc2Cl)ccc1F [Compound 33, 6-Chloro-N-(3-(N,N-diethylsulfamoyl)-4-fluorophenyl)quinoline-7-carboxamide]
Second: CCN(CC)S(=O)(=O)c1cc(NC(=O)c2cc3ncccc3cc2Cl)ccc1Cl [Compound 34, 6-Chloro-N-(4-chloro-3-(N,N-diethylsulfamoyl)phenyl)quinoline-7-carboxamide]
The IC50 of the first is higher: 500 to 1000 nM for the first, 100 to 500 nM for the second.

`Cn1nc(-c2ccccc2C(F)(F)F)cc1NC(=O)c1cc2ncccc2cc1Cl` [Compound 44, 6-Chloro-N-(1-methyl-3-(2-(trifluoromethyl)phenyl)-1H-pyrazol-5-yl)quinoline-7-carboxamide] and `Cn1nc(-c2ccccc2F)cc1NC(=O)c1cc2ncccc2cc1Cl` [Compound 29, 6-Chloro-N-[3-(2-fluorophenyl)-1-methyl-1H-pyrazol-5-yl]quinoline-7-carboxamide] fall in the same range of IC50: 100 to 500 nM for the first, 100 to 500 nM for the second.

First: CCN(CC)S(=O)(=O)c1cc(NC(=O)c2cc3cc(-c4ccccn4)cnc3s2)ccc1Cl [Compound 144, N-[4-chloro-3-(N,N-diethylsulfamoyl)phenyl]-5-(pyridin-2-yl)-thieno[2,3-b]pyridine-2-carboxamide]
Second: CCN(CC)S(=O)(=O)c1cc(NC(=O)c2cc3cc(-c4ccncc4)cnc3s2)ccc1Cl [Compound 142, N-[4-chloro-3-(N,N-diethylsulfamoyl)phenyl]-5-(pyridin-4-yl)-thieno[2,3-b]pyridine-2-carboxamide]
The IC50 of the first is higher: 500 to 1000 nM for the first, 100 to 500 nM for the second. The second is the more potent here.

Compared with `Cn1nc(-c2ccccc2)cc1NC(=O)c1ccc2cc(-c3ccc(F)cn3)cnc2c1` [Compound 128, 3-(5-fluoropyridin-2-yl)-N-(1-methyl-3-phenyl-1H-pyrazol-5-yl) quinoline-7-carboxamide], `Cn1nc(-c2ccccc2)cc1NC(=O)c1ccc2cc(-c3ccncc3F)cnc2c1` [Compound 125, 3-(3-fluoropyridin-4-yl)-N-(1-methyl-3-phenyl-1H-pyrazol-5-yl) quinoline-7-carboxamide] is higher in IC50: < 100 nM for the first, 100 to 500 nM for the second. The first is the more potent here.

`Cn1nc(C(F)(F)F)cc1NC(=O)c1ccc2cc(-c3ncc(F)cc3F)cnc2c1` [Compound 124, 3-(3,5-difluoropyridin-2-yl)-N-[l-methyl-3-(trifluoromethyl)-1H-pyrazol-5-yl]quinoline-7-carboxamide] and `Cn1nc(C(F)(F)F)cc1NC(=O)c1ccc2cc(-c3ccc(F)cc3F)cnc2c1` [Compound 75, 3-(2,4-Difluorophenyl)-N-[1-methyl-3-(trifluoromethyl)-1H-pyrazol-5-yl]quinoline-7-carboxamide] cannot be ordered by IC50: < 100 nM for the first, < 100 nM for the second.

`Cn1nc(C(F)(F)F)cc1NC(=O)c1ccc2cc(-c3cccc(C(F)(F)F)c3)cnc2c1` [Compound 55, N-[1-Methyl-3-(trifluoromethyl)-1H-pyrazol-5-yl]-3-[3-(trifluoromethyl)phenyl]quinoline-7-carboxamide] and `Cn1nc(C(F)(F)F)cc1NC(=O)c1ccc2cc(-c3cccc(F)c3)cnc2c1` [Compound 60, 3-(3-Fluorophenyl)-N-[1-methyl-3-(trifluoromethyl)-1H-pyrazol-5-yl]quinoline-7-carboxamide] cannot be ordered by IC50: > 1000 nM for the first, > 1000 nM for the second.

First: Cn1nc(C(F)(F)F)cc1NC(=O)c1ccc2cc(-c3cccc(Cl)c3)cnc2c1 [Compound 65, 3-(3-chlorophenyl)-N-[1-methyl-3-(trifluoromethyl)-1H-pyrazol-5-yl]quinoline-7-carboxamide]
Second: Cn1nc(C(F)(F)F)cc1NC(=O)c1ccc2cc(-c3ccsc3)cnc2c1 [Compound 67, N-[1-Methyl-3-(trifluoromethyl)-1H-pyrazol-5-yl]-3-(thiophen-3-yl)quinoline-7-carboxamide]
The IC50 of the first is higher: > 1000 nM for the first, < 100 nM for the second. The second is the more potent here.

`Cc1ccc(C(F)(F)F)cc1-c1cc(NC(=O)c2cc3ncccc3cc2Cl)n(C)n1` [Compound 59] and `Cn1nc(-c2cccc(C(F)(F)F)c2)cc1NC(=O)c1cc2ncccc2cc1Cl` [Compound 48, 6-Chloro-N-{1-methyl-3-[3-(trifluoromethyl)phenyl]-1H-pyrazol-5-yl}quinoline-7-carboxamide] fall in the same range of IC50: 100 to 500 nM for the first, 100 to 500 nM for the second.

First: Cc1ccccc1-c1cnc2cc(C(=O)Nc3ccc(C(F)(F)F)nc3)ccc2c1 [Compound 81, 3-(o-tolyl)-N-(6-(trifluoromethyl)pyridin-3-yl)quinoline-7-carboxamide]
Second: Cc1ccccc1-c1cc(NC(=O)c2ccc3cc(-c4ccc(F)cc4)cnc3c2)n(C)n1 [Compound 95, 3-(4-fluorophenyl)-N-(1-methyl-3-(o-tolyl)-1H-pyrazol-5-yl)quinoline-7-carboxamide]
The IC50 of the first is higher: 100 to 500 nM for the first, < 100 nM for the second.

Compared with `Cn1cc(-c2ccccc2)nc1NC(=O)c1cc2ncccc2cc1Cl` [Compound 90, 6-chloro-N-(1-methyl-4-phenyl-1H-imidazol-2-yl)quinoline-7-carboxamide], `Cn1nc(C(F)(F)F)cc1NC(=O)c1ccc2cc(-c3cccs3)cnc2c1` [Compound 73, N-[1-Methyl-3-(trifluoromethyl)-1H-pyrazol-5-yl]-3-(thiophen-2-yl)quinoline-7-carboxamide] is lower in IC50: 500 to 1000 nM for the first, < 100 nM for the second.

In the case of `O=C(Nc1ccc(C(F)(F)F)nc1)c1ccc2c(N3CCOCC3)ccnc2c1` [Compound 80, 4-morpholino-N-(6-(trifluoromethyl)pyridin-3-yl)quinoline-7-carboxamide], the IC50 is reported as > 1000 nM.
